Key:
Assay in all cases: Test C greenhouse herbicide test, pre- and postemergence
Format in all cases: in vivo
[1] = test system: barnyardgrass (Echinochloa crus-galli)
Method in brief: (§1)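 Two application timings: at sowing into a soil/sand blend, and on 2–18 cm seedlings in peat-vermiculite potting mix. A non-phytotoxic, surfactant-containing solvent carried the compounds. Plants were compared with controls and rated visually on 0–100 after 13–15 d.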

[2] = test system: blackgrass (Alopecurus myosuroides)
Method in brief: as §1

[3] = test system: corn (Zea mays)
Method in brief: as §1

[4] = test system: crabgrass, large (large crabgrass, Digitaria sanguinalis)
Method in brief: as §1

[5] = test system: foxtail, giant (giant foxtail, Setaria faberii)
Method in brief: as §1

[6] = test system: galium (catchweed bedstraw, Galium aparine)
Method in brief: as §1

[7] = test system: lambsquarters (Chenopodium album)
Method in brief: as §1

[8] = test system: morningglory (Ipomoea coccinea)
Method in brief: as §1

[9] = test system: oilseed rape (Brassica napus)
Method in brief: as §1

[10] = test system: pigweed (Amaranthus retroflexus)
Method in brief: as §1

[11] = test system: ragweed (common ragweed, Ambrosia elatior)
Method in brief: as §1

[12] = test system: ryegrass, Italian (Italian ryegrass, Lolium multiflorum)
Method in brief: as §1

[13] = test system: velvetleaf (Abutilon theophrasti)
Method in brief: as §1

[14] = test system: waterhemp (common waterhemp, Amaranthus rudis)
Method in brief: as §1

[15] = test system: wheat (winter wheat, Triticum aestivum)
Method in brief: as §1

[16] = Postemergence, 31 g ai/ha, 0 to 100 scale (0 no effect, 100 complete control)
[17] = Postemergence, 125 g ai/ha, scale 0 to 100, 0 is no effect, 100 is complete control
[18] = Postemergence, 250 g ai/ha, scale 0 to 100, 0 no effect, 100 complete control, 13 to 15 d
[19] = Preemergence, 31 g ai/ha, scale 0 to 100, 0 is no effect, 100 is complete control
[20] = Preemergence, 62 g ai/ha, scale 0 to 100, 0 is no effect, 100 is complete control
[21] = Preemergence, 125 g ai/ha, scale 0 to 100, 0 is no effect, 100 is complete control
[22] = Preemergence, 250 g ai/ha, scale 0 to 100, 0 no effect, 100 complete control
[23] = postemergence, 62 g ai/ha, scale 0 to 100, 0 no effect, 100 complete control

`CCc1sc2c(C)cc(C)cc2c1-c1c(O)c(C)nn(C)c1=O` [Compound 57] was tested, and the “Barnyardgrass plant response rating” value [1, 16] was 90, the “Plant response rating, Barnyardgrass” value [1, 17] was 95 and the “Plant response rating, Barnyardgrass” value [1, 18] was 98. For the same compound, the “Plant response rating, Barnyardgrass” value [1, 19] was 5, the “Plant response rating, Barnyardgrass” value [1, 20] was 90 and the “Plant response rating, Barnyardgrass” value [1, 21] was 100. The “Barnyardgrass plant response rating” value [1, 22] was 100, the “Barnyardgrass plant response rating” value [1, 23] was 95 and the “Blackgrass plant response rating” value [2, 16] was 5. For the same compound, the “Plant response rating, Blackgrass” value [2, 17] was 5, the “Plant response rating, Blackgrass” value [2, 18] was 25 and the “Plant response rating, Blackgrass” value [2, 19] was 30. For the same compound, the “Plant response rating, Blackgrass” value [2, 20] was 60, the “Plant response rating, Blackgrass” value [2, 21] was 70 and the “Blackgrass plant response rating” value [2, 22] was 80. For the same compound, the “Blackgrass plant response rating” value [2, 23] was 5, the “Corn plant response rating” value [3, 16] was 0 and the “Plant response rating, Corn” value [3, 17] was 5. For the same compound, the “Plant response rating, Corn” value [3, 18] was 10, the “Plant response rating, Corn” value [3, 19] was 0 and the “Plant response rating, Corn” value [3, 21] was 0. The “Corn plant response rating” value [3, 22] was 35, the “Corn plant response rating” value [3, 23] was 5 and the “Crabgrass, Large plant response rating” value [4, 16] was 10. For the same compound, the “Plant response rating, Crabgrass, Large” value [4, 17] was 30, the “Plant response rating, Crabgrass, Large” value [4, 18] was 35 and the “Plant response rating, Crabgrass, Large” value [4, 19] was 0. The “Plant response rating, Crabgrass, Large” value [4, 20] was 35, the “Plant response rating, Crabgrass, Large” value [4, 21] was 98 and the “Crabgrass, Large plant response rating” value [4, 22] was 100. For the same compound, the “Crabgrass, Large plant response rating” value [4, 23] was 20, the “Foxtail, Giant plant response rating” value [5, 16] was 70 and the “Plant response rating, Foxtail, Giant” value [5, 17] was 85. For the same compound, the “Plant response rating, Foxtail, Giant” value [5, 18] was 95, the “Plant response rating, Foxtail, Giant” value [5, 19] was 45 and the “Plant response rating, Foxtail, Giant” value [5, 20] was 80. The “Plant response rating, Foxtail, Giant” value [5, 21] was 90, the “Foxtail, Giant plant response rating” value [5, 22] was 100 and the “Foxtail, Giant plant response rating” value [5, 23] was 70. For the same compound, the “Galium plant response rating” value [6, 16] was 95, the “Plant response rating, Galium” value [6, 17] was 95 and the “Plant response rating, Galium” value [6, 18] was 100. The “Plant response rating, Galium” value [6, 19] was 80, the “Plant response rating, Galium” value [6, 20] was 90 and the “Plant response rating, Galium” value [6, 21] was 95. The “Galium plant response rating” value [6, 22] was 98, the “Galium plant response rating” value [6, 23] was 95 and the “Lambsquarters plant response rating” value [7, 16] was 70. The “Plant response rating, Lambsquarters” value [7, 17] was 95, the “Plant response rating, Lambsquarters” value [7, 18] was 90 and the “Plant response rating, Lambsquarters” value [7, 19] was 100. The “Plant response rating, Lambsquarters” value [7, 20] was 100, the “Plant response rating, Lambsquarters” value [7, 21] was 100 and the “Lambsquarters plant response rating” value [7, 22] was 100. The “Lambsquarters plant response rating” value [7, 23] was 70, the “Morningglory plant response rating” value [8, 16] was 95 and the “Plant response rating, Morningglory” value [8, 17] was 100. For the same compound, the “Plant response rating, Morningglory” value [8, 18] was 100, the “Plant response rating, Morningglory” value [8, 19] was 100 and the “Plant response rating, Morningglory” value [8, 20] was 100. The “Plant response rating, Morningglory” value [8, 21] was 100, the “Morningglory plant response rating” value [8, 22] was 100 and the “Morningglory plant response rating” value [8, 23] was 100. The “Oilseed Rape plant response rating” value [9, 16] was 0, the “Plant response rating, Oilseed Rape” value [9, 17] was 0 and the “Plant response rating, Oilseed Rape” value [9, 18] was 5. For the same compound, the “Plant response rating, Oilseed Rape” value [9, 19] was 0, the “Plant response rating, Oilseed Rape” value [9, 20] was 0 and the “Plant response rating, Oilseed Rape” value [9, 21] was 30. For the same compound, the “Oilseed Rape plant response rating” value [9, 22] was 60, the “Oilseed Rape plant response rating” value [9, 23] was 0 and the “Pigweed plant response rating” value [10, 16] was 60. For the same compound, the “Plant response rating, Pigweed” value [10, 17] was 85, the “Plant response rating, Pigweed” value [10, 18] was 100 and the “Plant response rating, Pigweed” value [10, 19] was 100. The “Plant response rating, Pigweed” value [10, 20] was 100, the “Plant response rating, Pigweed” value [10, 21] was 100 and the “Pigweed plant response rating” value [10, 22] was 100. For the same compound, the “Pigweed plant response rating” value [10, 23] was 80, the “Ragweed plant response rating” value [11, 16] was 60 and the “Plant response rating, Ragweed” value [11, 17] was 85. The “Plant response rating, Ragweed” value [11, 18] was 95, the “Plant response rating, Ragweed” value [11, 19] was 70 and the “Plant response rating, Ragweed” value [11, 20] was 95. The “Plant response rating, Ragweed” value [11, 21] was 100, the “Ragweed plant response rating” value [11, 22] was 100 and the “Ragweed plant response rating” value [11, 23] was 90. The “Ryegrass, Italian plant response rating” value [12, 16] was 25, the “Plant response rating, Ryegrass, Italian” value [12, 17] was 50 and the “Plant response rating, Ryegrass, Italian” value [12, 18] was 60. For the same compound, the “Plant response rating, Ryegrass, Italian” value [12, 19] was 45, the “Plant response rating, Ryegrass, Italian” value [12, 20] was 65 and the “Plant response rating, Ryegrass, Italian” value [12, 21] was 70. The “Ryegrass, Italian plant response rating” value [12, 22] was 85, the “Ryegrass, Italian plant response rating” value [12, 23] was 30 and the “Velvetleaf plant response rating” value [13, 16] was 90. For the same compound, the “Plant response rating, Velvetleaf” value [13, 17] was 100, the “Plant response rating, Velvetleaf” value [13, 18] was 100 and the “Plant response rating, Velvetleaf” value [13, 19] was 50. The “Plant response rating, Velvetleaf” value [13, 20] was 80, the “Plant response rating, Velvetleaf” value [13, 21] was 95 and the “Velvetleaf plant response rating” value [13, 22] was 100. The “Velvetleaf plant response rating” value [13, 23] was 95, the “Waterhemp plant response rating” value [14, 16] was 50 and the “Plant response rating, Waterhemp” value [14, 17] was 85. For the same compound, the “Plant response rating, Waterhemp” value [14, 18] was 100, the “Plant response rating, Waterhemp” value [14, 19] was 90 and the “Plant response rating, Waterhemp” value [14, 20] was 98. For the same compound, the “Plant response rating, Waterhemp” value [14, 21] was 100, the “Waterhemp plant response rating” value [14, 22] was 100 and the “Waterhemp plant response rating” value [14, 23] was 65. The “Wheat plant response rating” value [15, 16] was 0, the “Plant response rating, Wheat” value [15, 17] was 0 and the “Plant response rating, Wheat” value [15, 18] was 5. The “Plant response rating, Wheat” value [15, 19] was 0, the “Plant response rating, Wheat” value [15, 20] was 0 and the “Plant response rating, Wheat” value [15, 21] was 0. For the same compound, the “Wheat plant response rating” value [15, 22] was 5 and the “Wheat plant response rating” value [15, 23] was 0.

Source: patent publication US10597388B2, “Pyridazinone herbicides” (FMC CORPORATION, priority 2014, dated 2020)
